For assay [1], the system named is STAT3^Tyr705 phosphorylation. Nature of the assay: Leptin-stimulated hypothalamic STAT3 phosphorylation in DIO mice. It is filed as in vivo. As to conditions: 45 min after leptin 1 mg/kg i.p., ACY775 10, ACY738 50, ricolinostat 50 mg/kg/day i.p. As for the experimental part: DIO mice were pretreated with ACY775 (10 mg/kg/day, i.p.) or vehicle for 3 days, which was followed by a last injection of ACY775 (or vehicle) in the morning of fourth day. 6 hours later mice were injected with saline or leptin (1 mg/kg, i.p.) and hypothalamus were extracted after 45 minutes following the leptin injection. Representative immunoblots for STAT3^Tyr705 phosphorylation and total STAT3 from the hypothalamus. Quantification of the ratio of p-STAT3^Tyr705 to total-STAT3 signal in the immunoblots. The results were reproduced in three independent experiments. The results were analyzed hourly.
DIO mice were pretreated with ACY775 (10 mg/kg/day, i.p.) or vehicle for 3 days, which was followed by a last injection of ACY775 (or vehicle) in the morning of fourth day. 6 hours later mice were injected with saline or leptin (1 mg/kg, i.p.) and the hypothalamus were extracted after 45 minutes following the leptin injection.
6 hours later mice were injected with saline or leptin (1 mg/kg, i.p.) and hypothalamus were extracted after 45 minutes following the leptin injection. Immunoblots for STAT3^Tyr705 phosphorylation and total STAT3 from the hypothalamus were made to quantify the ratio of p-STAT3^Tyr705 to total-STAT3 signal in the immunoblots. The results were reproduced in two independent experiments.
DIO mice were pretreated with ricolinostat (50 mg/kg/day, i.p.) or vehicle 3 days, which was followed by a last injection of ricolinostat (or vehicle) in the morning of fourth day. 6 hours later mice were injected with saline or leptin (1 mg/kg, i.p.) and the hypothalamus were extracted after 45 minutes following the leptin injection. Immunoblots were performed for STAT3^Tyr705 phosphorylation and total STAT3 from the hypothalamus. The ratio of p-STAT3^Tyr705 to total STAT3 signal in the immunoblots was quantified.

The test system of assay [2] is DIO mice. Description: Chronic treatment of DIO mice (body weight, food intake, leptin, DEXA). It is filed as in vivo. The conditions noted are these: for body weight after treatment / decrease in body weight: 3 weeks; for body weight after treatment / decrease in body weight / body weight before treatment / daily food intake under treatment: ACY775 10, ACY738 50 mg/kg/day i.p.; for fat mass (DEXA) / fat percentage (DEXA) / lean mass (DEXA) / circulating/serum leptin levels: after 3 weeks; for circulating/serum leptin levels: ACY775 10, ACY738 50, ricolinostat 50 mg/kg i.p.; for food intake and total body fat mass: high fat diet induced mice, summary. On the procedure: DIO mice were treated with ACY775 (10 mg/kg/day, i.p.) for 3 weeks. Daily body weight (g) of DIO mice treated with vehicle (n=17) or ACY775 (n=17) during 3 weeks of treatment was determined. Daily food intake (g) during 3 weeks of vehicle or ACY775 treatment was assessed. 24 hours' food intake per mouse during the first week of vehicle or ACY775 treatment was determined. Serum leptin (ng/ml) levels after 3 weeks of vehicle (n=24) or ACY775 (n=24) treatment was assessed. Lean mass (g), fat mass (g) and fat percentage (%) after 3 weeks of vehicle (n=17) or ACY775 (n=17) treatment measured by Dual-energy X-ray absorptiometry (DEXA) scan. DEXA scans were performed in two different cohorts. Glucose tolerance test (GTT) after 1 week of vehicle (n=33) or ACY775 (n=26) treated DIO mice was assessed. Area of curve (AOC) analysis for GTT was performed. Blood glucose (mg/dl) levels after 1 week of vehicle (n=17) or ACY775 (n=16) were assessed in treated DIO mice. Insulin tolerance test (ITT) was performed after 2 weeks of vehicle (n=31) or ACY775 (n=21) treatment of DIO mice. Serum insulin (ng/ml) levels were measured after 3 weeks of vehicle (n=22) or ACY775 (n=21) in treated DIO mice. A homeostatic model assessment of insulin resistance (HOMA-IR) was analyzed after 3 weeks of vehicle (n=14) or ACY775 (n=13) treated DIO mice.
Food intake was analyzed hourly until 3:00 am. […] DEXA scans were performed in two different cohorts.
DIO mice then were treated with ricolinostat (50 mg/kg, i.p.) for 3 weeks. Daily body weight (g), daily food intake (g), serum leptin (ng/ml) levels after 3 weeks of vehicle (n=8) or ricolinostat (n=8) treatment, lean mass (g); fat mass and fat percentage (%) after 3 weeks of vehicle (n=16) or ricolinostat (n=17) treatment measured by DEXA scan were determined.
Studies were conducted as described above with reference to ACY775.
DIO mice then were treated with bavarostat (10 mg/kg, i.p.) for 3 weeks and daily body weight (g) of DIO mice treated with Veh (n=9) or bavarostat (n=9) measured during the three weeks of treatment period. Daily food intake (g) during 3 weeks of Veh or bavarostat treatment was also measured.
ACY1083 was administered to DIO mice as described in Example 3.

A further assay relates to HDAC6. Description: Ac-tubulin immunoblotting in HEK293 cells. The class given is cell-based. For orientation: A western blot detects proteins with antibodies after separation by electrophoresis.
In assay [3] the test system is DIO mice. Description: Acute leptin co-treatment in DIO mice (body weight, food intake 15 h). As to conditions: for body weight 15 h after leptin in inhibitor-pretreated mice / food intake 15 h after leptin in inhibitor-pretreated mice: leptin 1 mg/kg i.p., ACY775 10, ACY738 50, ricolinostat 25 mg/kg/day i.p.; for body weight, inhibitor alone: 3 days pretreatment i.p., ACY775 10, ricolinostat 25 mg/kg; for food intake, inhibitor alone: ACY775 10, ricolinostat 25 mg/kg i.p. The class given is in vivo. As for the experimental part: DIO mice were pretreated with ACY775 (10 mg/kg/day, i.p.) or vehicle for 3 days, which was followed by co-treatment with ACY775 (or vehicle) and leptin (1 mg/kg, i.p.) (or saline) (n=9 for each group), % change in body weight 15 h after leptin treatment, food intake (g) during the 15 h period after leptin treatment. The results in were reproduced in two independent experiments.
Diet induced obese (DIO) mice were pretreated with ACY775 (10 mg/kg/day, i.p.) or vehicle for 3 days, which was followed by co-treatment with ACY775 (or vehicle) and leptin (1 mg/kg, i.p.) (or saline) (n=9 for each group). Mice were evaluated for % change in body weight 15 h after leptin treatment, and food intake (g) during the 15 h period after leptin treatment.
DIO mice were pretreated with ricolinostat (25 mg/kg/day, i.p.) or vehicle for 3 days, which was followed by co-treatment with ricolinostat (or vehicle) and leptin (1 mg/kg, i.p.) (or saline) (n=32 for each group). Change in body weight 15 h after leptin treatment, and food intake (g) during the 15 h period after leptin treatment were determined. The results were reproduced in two independent experiments.

Consider three compounds from US20240252496A1, “SELECTIVE HYPOTHALAMUS PERMEABLE HDAC6 INHIBITORS FORTREATMENT OF LEPTIN-RESISTANT OBESITY” (The Children’s Medical Center Corporation, priority 2022, published 2024).

“Also recorded” adds a separate entry of the source.

`O=C(NO)c1cnc(NC2(c3ccccc3)CC2)nc1` [ACY738]: in assay [1], the “leptin-stimulated hypothalamic p-STAT3^Tyr705 in inhibitor-pretreated mice” value is “substantially increased”. Further, in the assay with DIO mice [2] (DIO mice), the “average food intake during the first week vs control” value is given as “severely reduced”, the “daily food intake before treatment” value was 2.35 ± 0.10 g, the “body weight after treatment” value came to 37.74 ± 1 g and the “decrease in body weight” value was 20.21%±1.32%. In addition, in the assay with DIO mice [2] (DIO mice), the “fat mass (DEXA)” value is on record as “significantly decreased”, the “fat percentage (DEXA)” value is reported as “significantly decreased”, the “lean mass (DEXA)” value is recorded as “no change in the lean body mass” and the circulating/serum leptin levels result is recorded as “significantly decreased”. Further, in the assay on DIO mice [2] (DIO mice), the “body weight before treatment” value was 46.43 ± 0.74 g and the “daily food intake under treatment” value stood at 1.32 ± 0.05 g. Further, the “food intake and total body fat mass” value in the assay with DIO mice [2] was “significant reduction of food intake and total body fat mass”. For the same compound, the “tubulin acetylation (HDAC6 inhibitor activity) in cells” value with HDAC6 is “inhibits the HDAC6 activity”. In the assay on DIO mice [3], the “body weight 15 h after leptin in inhibitor-pretreated mice” value was “significantly augmented the acute leptin-induced reduction in body weight and food intake”; the “food intake 15 h after leptin in inhibitor-pretreated mice” value is “significantly augmented the acute leptin-induced reduction in body weight and food intake”.
Consider `O=C(CCCCCCNC(=O)c1cnc(N(c2ccccc2)c2ccccc2)nc1)NO` [Ricolinostat], for which, in assay [1], the “leptin-stimulated hypothalamic p-STAT3^Tyr705 in inhibitor-pretreated mice” value is “did not significantly increase STAT3^Tyr705 phosphorylation”. Further, the “body weight effect of chronic treatment” value in the assay on DIO mice [2] (DIO mice, 3 weeks i.p., bavarostat 10, citarinostat 25, ricolinostat 50 mg/kg) is recorded as “minimal decrease in bodyweight for the first couple of days without creating any meaningful or significant decreases; also recorded: does not reduce body weight”. In the assay on DIO mice [2] (DIO mice, 3 weeks i.p., bavarostat 10, ricolinostat 50 mg/kg), the “food intake during chronic treatment” value is on record as “reduced transitionally during the first 2-3 days of treatment but then rebounded”. Further, in the assay with HDAC6, the “tubulin acetylation (HDAC6 inhibitor activity) in cells” value was “confirmation of Ricolinstat's HDAC6 inhibitory activity”. Further, in the assay with DIO mice [3], the “body weight, inhibitor alone” value was “did not decrease the bodyweight”; the “food intake, inhibitor alone” value is given as “no effect on the food intake”; the “body weight 15 h after leptin in inhibitor-pretreated mice” value is on record as “did not reduce the body weight”; the “food intake 15 h after leptin in inhibitor-pretreated mice” value is listed as “no effect on the food intake”.
As for `O=C(NO)c1cnc(NC2(c3cccc(F)c3)CCCCC2)nc1` [ACY775, 2-[[1-(3-fluorophenyl)cyclohexyl]amino]-N-hydroxy-5-pyrimidinecarboxamide], the “leptin-stimulated hypothalamic p-STAT3^Tyr705 in inhibitor-pretreated mice” value in assay [1] was “increased significantly”. Moreover, in the assay on DIO mice [2] (DIO mice), the “average food intake during the first week vs control” value is on record as “highly significant reduction”, the “daily food intake before treatment” value was 2.54 ± 0.10 g, the “body weight after treatment” value is 33.53 ± 1.19 g and the “decrease in body weight” value is listed as 29.58%±1.79%. In addition, in the assay with DIO mice [2] (DIO mice), the “fat mass (DEXA)” value is recorded as “significantly lower”, the “fat percentage (DEXA)” value is given as “significantly lower”, the “lean mass (DEXA)” value is reported as “did not alter the lean mass” and the circulating/serum leptin levels entry is listed as “significantly downregulated”. In the assay on DIO mice [2] (DIO mice), the “body weight before treatment” value came out at 48.25 ± 0.87 g and the “daily food intake under treatment” value was found to be 0.85 ± 0.06 g. In the assay on DIO mice [2], the “food intake and total body fat mass” value is “significant reduction of food intake and total body fat mass”. The “tubulin acetylation (HDAC6 inhibitor activity) in cells” value in the assay with HDAC6 is given as “increases tubulin acetylation”. Also, in the assay on DIO mice [3], the “body weight, inhibitor alone” value was “significantly decreased the bodyweight”; the “food intake, inhibitor alone” value is reported as “reduced the food intake”; the “body weight 15 h after leptin in inhibitor-pretreated mice” value was “further reduction in bodyweight”; the “food intake 15 h after leptin in inhibitor-pretreated mice” value is “further augmented the negative effect of leptin on food intake”.
